The values below come from patent publication US20080207572A1, “Use of Dual C-Kit/Fgfr3 Inhibitors for Treating Multiple Myeloma” (AB Science, priority 2005, published 2008).

Holding throughout (format): cell-based
The subject of test [1] is human mast cell line expressing the JMΔ27 mutated c-kit. Description: Apoptosis induction in mast cell line. The following applies: 0.1 μM, after 48 hours; control cells 10% apoptotic. How it is done:
(§1) In this experiment, after 48 hours, 0.1 μM AB1010 induced apoptosis of approximately 50% versus control cells in which 10% of cells were apoptotic. In addition, a separate cell line (Ba/F3-derived) expressing JMΔ27 was tested and apoptosis was induced to a level of approximately 85%.

Test [2] deals with cell line (Ba/F3-derived) expressing JMΔ27. Description: Apoptosis induction in Ba/F3-derived cell line. How it is done:
as §1

Test [3] has as its system t(4; 14) FGFR3+ human plasma cell line LP1. Description: FGF-enhanced proliferation (3H-Thymidine uptake). The following applies: in the presence of FGF; FIG. 2. The source says: In the presence of FGF, the proliferation of the t(4; 14) FGFR3+ human plasma cell line is enhanced, as measured by 3H-Thymidine uptake.

On to `Cc1ccc(NC(=O)c2ccc(CN3CCN(C)CC3)cc2)cc1Nc1nc(-c2cccnc2)cs1` [AB1010], for which the apoptosis induced entry in test [1] was “approximately 50%”; in test [2] it was “approximately 85%”. Further, in test [3], the “inhibition of FGF-enhanced proliferation” value is “inhibit the FGF-enhanced proliferation”.
